Results: ChEMBL document CHEMBL1777684, “Synthesis and evaluation of antioxidant and antibacterial activities of new substituted bis(1,3,4-oxadiazoles), 3,5-bis(substituted) pyrazoles and isoxazoles” (Bioorg Med Chem Lett, 2011)
Activity calls are given as the source filed them. The rule behind the calls is not given here.

Columns and labels:
Escherichia coli = experiment: Antibacterial activity against Escherichia coli NCIM 2065 at 100 ug/ml after 24 hrs by agar disc diffusion method; format: functional; details: for zone of inhibition at 100 µg/mL: NCIM 2065, 24 h, read-out: IZ
[1] = test system: Radical scavenging activity; experiment: Antioxidant activity assessed as DPPH radical scavenging activity at 10 ug/ml by UV-visible spectrophotometry; format: functional
Pseudomonas aeruginosa = experiment: Antibacterial activity against Pseudomonas aeruginosa NCIM 5029 at 100 ug/ml after 24 hrs by agar disc diffusion method; format: functional; details: for zone of inhibition at 100 µg/mL: NCIM 5029, 24 h, read-out: IZ
Bacillus subtilis = experiment: Antibacterial activity against Bacillus subtilis NCIM 2063 at 100 ug/ml after 24 hrs by agar disc diffusion method; format: functional; details: NCIM 2063, 24 h, read-out: IZ
[2] = Anti-lipid peroxidation activity ferric chloride-induced lipid peroxidation using egg yolk homogenate at 40 ug/ml by TBARS assay; format: physicochemical; details: tissue homogenate
Staphylococcus aureus = experiment: Antibacterial activity against Staphylococcus aureus NCIM 2079 at 100 ug/ml after 24 hrs by agar disc diffusion method; format: functional; details: for zone of inhibition at 100 µg/mL: NCIM 2079, 24 h, read-out: IZ

Compound: CN(C)c1ccc(/C=N/Nc2cc(N/N=C/c3ccc(N(C)C)cc3)on2)cc1
- zone of inhibition at 100 µg/mL (Escherichia coli): 10 mm
- Activity [1]: 90.6%
- zone of inhibition at 100 µg/mL (Pseudomonas aeruginosa): 12 mm
- zone of inhibition at 100 µg/mL (Bacillus subtilis): 15 mm
- Activity [2]: 54.5%
- zone of inhibition at 100 µg/mL (Staphylococcus aureus): 20 mm

Compound: Clc1ccc(-c2nnc(Cc3nnc(-c4ccc(Cl)cc4)o3)o2)cc1
- inhibition zone (IZ) (Escherichia coli): inactive
- Activity [1]: 40%
- inhibition zone (IZ) (Pseudomonas aeruginosa): inactive
- zone of inhibition at 100 µg/mL (Bacillus subtilis): 6 mm
- Activity [2]: 16.2%
- zone of inhibition at 100 µg/mL (Staphylococcus aureus): 4 mm

Compound: c1ccc(-c2nnc(Cc3nnc(-c4ccccc4)o3)o2)cc1
- zone of inhibition at 100 µg/mL (Escherichia coli): 5 mm
- Activity [1]: 41.3%
- zone of inhibition at 100 µg/mL (Pseudomonas aeruginosa): 13 mm
- zone of inhibition at 100 µg/mL (Bacillus subtilis): 10 mm
- Activity [2]: 33.4%
- zone of inhibition at 100 µg/mL (Staphylococcus aureus): 7 mm

Compound: COc1cc(-c2nnc(Cc3nnc(-c4cc(OC)c(OC)c(OC)c4)o3)o2)cc(OC)c1OC
- inhibition zone (IZ) (Escherichia coli): inactive
- inhibition zone (IZ) (Pseudomonas aeruginosa): inactive
- zone of inhibition at 100 µg/mL (Bacillus subtilis): 3 mm
- Activity [2]: 44.3%
- zone of inhibition at 100 µg/mL (Staphylococcus aureus): 7 mm

Compound: O=C(O)c1cn(C2CC2)c2cc(N3CCNCC3)c(F)cc2c1=O [CIPROFLOXACIN]
- zone of inhibition at 100 µg/mL (Pseudomonas aeruginosa): 18 mm
- zone of inhibition at 100 µg/mL (Bacillus subtilis): 18 mm
- zone of inhibition at 100 µg/mL (Staphylococcus aureus): 29 mm

Compound: COc1ccc(-c2nnc(Cc3nnc(-c4ccc(OC)cc4)o3)o2)cc1
- zone of inhibition at 100 µg/mL (Escherichia coli): 6 mm
- Activity [1]: inactive
- zone of inhibition at 100 µg/mL (Pseudomonas aeruginosa): 7 mm
- zone of inhibition at 100 µg/mL (Bacillus subtilis): 8 mm
- Activity [2]: 40.5%
- zone of inhibition at 100 µg/mL (Staphylococcus aureus): 9 mm

Compound: COc1ccc(/C=N/Nc2cc(N/N=C/c3ccc(OC)c(OC)c3)[nH]n2)cc1OC
- zone of inhibition at 100 µg/mL (Escherichia coli): 13 mm
- Activity [1]: 47.1%
- zone of inhibition at 100 µg/mL (Pseudomonas aeruginosa): 6 mm
- zone of inhibition at 100 µg/mL (Bacillus subtilis): 8 mm
- zone of inhibition at 100 µg/mL (Staphylococcus aureus): 10 mm

Compound: Clc1ccc(/C=N/Nc2cc(N/N=C/c3ccc(Cl)cc3)on2)cc1
- zone of inhibition at 100 µg/mL (Escherichia coli): 8 mm
- Activity [1]: 37.4%
- zone of inhibition at 100 µg/mL (Pseudomonas aeruginosa): 6 mm
- zone of inhibition at 100 µg/mL (Bacillus subtilis): 8 mm
- Activity [2]: Not Active
- zone of inhibition at 100 µg/mL (Staphylococcus aureus): 14 mm

Compound: CN(C)c1ccc(-c2nnc(Cc3nnc(-c4ccc(N(C)C)cc4)o3)o2)cc1
- zone of inhibition at 100 µg/mL (Escherichia coli): 10 mm
- Activity [1]: 28%
- zone of inhibition at 100 µg/mL (Pseudomonas aeruginosa): 9 mm
- zone of inhibition at 100 µg/mL (Bacillus subtilis): 12 mm
- Activity [2]: 46.3%
- zone of inhibition at 100 µg/mL (Staphylococcus aureus): 13 mm

Compound: COc1cc(/C=N/Nc2cc(N/N=C/c3cc(OC)c(OC)c(OC)c3)on2)cc(OC)c1OC
- zone of inhibition at 100 µg/mL (Escherichia coli): 11 mm
- Activity [1]: 54%
- zone of inhibition at 100 µg/mL (Pseudomonas aeruginosa): 9 mm
- zone of inhibition at 100 µg/mL (Bacillus subtilis): 10 mm
- Activity [2]: 48.4%
- zone of inhibition at 100 µg/mL (Staphylococcus aureus): 13 mm

Compound: O=C1O[C@H]([C@@H](O)CO)C(O)=C1O
- Activity [1]: 93.2%

Compound: VITAMIN E
- Activity [2]: 70%

Compound: O=[N+]([O-])c1ccc(/C=N/Nc2cc(N/N=C/c3ccc([N+](=O)[O-])cc3)[nH]n2)cc1
- zone of inhibition at 100 µg/mL (Escherichia coli): 11 mm
- Activity [1]: 74.2%
- zone of inhibition at 100 µg/mL (Pseudomonas aeruginosa): 8 mm
- zone of inhibition at 100 µg/mL (Bacillus subtilis): 7 mm
- Activity [2]: Not Active
- zone of inhibition at 100 µg/mL (Staphylococcus aureus): 9 mm

Compound: COc1ccc(-c2nnc(Cc3nnc(-c4ccc(OC)c(OC)c4)o3)o2)cc1OC
- zone of inhibition at 100 µg/mL (Escherichia coli): 10 mm
- Activity [1]: inactive
- zone of inhibition at 100 µg/mL (Pseudomonas aeruginosa): 9 mm
- zone of inhibition at 100 µg/mL (Bacillus subtilis): 11 mm
- zone of inhibition at 100 µg/mL (Staphylococcus aureus): 10 mm

Compound: COc1cc(/C=N/Nc2cc(N/N=C/c3cc(OC)c(OC)c(OC)c3)[nH]n2)cc(OC)c1OC
- inhibition zone (IZ) (Escherichia coli): inactive
- Activity [1]: 52.4%
- zone of inhibition at 100 µg/mL (Pseudomonas aeruginosa): 9 mm
- zone of inhibition at 100 µg/mL (Bacillus subtilis): 12 mm
- zone of inhibition at 100 µg/mL (Staphylococcus aureus): 17 mm

Compound: C(=N\Nc1cc(N/N=C/c2ccccc2)[nH]n1)/c1ccccc1
- zone of inhibition at 100 µg/mL (Escherichia coli): 4 mm
- Activity [1]: 34.2%
- zone of inhibition at 100 µg/mL (Pseudomonas aeruginosa): 9 mm
- zone of inhibition at 100 µg/mL (Bacillus subtilis): 9 mm
- Activity [2]: 44%
- zone of inhibition at 100 µg/mL (Staphylococcus aureus): 5 mm

Compound: CN(C)c1ccc(/C=N/Nc2cc(N/N=C/c3ccc(N(C)C)cc3)[nH]n2)cc1
- zone of inhibition at 100 µg/mL (Escherichia coli): 9 mm
- Activity [1]: 59.2%
- zone of inhibition at 100 µg/mL (Pseudomonas aeruginosa): 8 mm
- zone of inhibition at 100 µg/mL (Bacillus subtilis): 10 mm
- zone of inhibition at 100 µg/mL (Staphylococcus aureus): 20 mm

Compound: Oc1ccc(/C=N/Nc2cc(N/N=C/c3ccc(O)cc3)[nH]n2)cc1
- zone of inhibition at 100 µg/mL (Escherichia coli): 13 mm
- Activity [1]: 83%
- zone of inhibition at 100 µg/mL (Pseudomonas aeruginosa): 18 mm
- zone of inhibition at 100 µg/mL (Bacillus subtilis): 7 mm
- Activity [2]: 58.6%
- inhibition zone (IZ) (Staphylococcus aureus): inactive

Compound: Oc1ccc(-c2nnc(Cc3nnc(-c4ccc(O)cc4)o3)o2)cc1
- zone of inhibition at 100 µg/mL (Escherichia coli): 1 mm
- Activity [1]: 36%
- zone of inhibition at 100 µg/mL (Pseudomonas aeruginosa): 1 mm
- zone of inhibition at 100 µg/mL (Bacillus subtilis): 2 mm
- Activity [2]: 53.4%
- zone of inhibition at 100 µg/mL (Staphylococcus aureus): 7 mm

Compound: Oc1ccccc1-c1nnc(Cc2nnc(-c3ccccc3O)o2)o1
- zone of inhibition at 100 µg/mL (Escherichia coli): 8 mm
- Activity [1]: 37%
- zone of inhibition at 100 µg/mL (Pseudomonas aeruginosa): 5 mm
- zone of inhibition at 100 µg/mL (Bacillus subtilis): 13 mm
- Activity [2]: 48.6%
- zone of inhibition at 100 µg/mL (Staphylococcus aureus): 9 mm

Compound: COc1ccc(/C=N/Nc2cc(N/N=C/c3ccc(OC)cc3)[nH]n2)cc1
- zone of inhibition at 100 µg/mL (Escherichia coli): 18 mm
- Activity [1]: 44.3%
- zone of inhibition at 100 µg/mL (Pseudomonas aeruginosa): 19 mm
- zone of inhibition at 100 µg/mL (Bacillus subtilis): 20 mm
- Activity [2]: 46.3%
- zone of inhibition at 100 µg/mL (Staphylococcus aureus): 28 mm

Compound: Clc1ccc(/C=N/Nc2cc(N/N=C/c3ccc(Cl)cc3)[nH]n2)cc1
- zone of inhibition at 100 µg/mL (Escherichia coli): 4 mm
- Activity [1]: 40%
- zone of inhibition at 100 µg/mL (Pseudomonas aeruginosa): 5 mm
- zone of inhibition at 100 µg/mL (Bacillus subtilis): 6 mm
- zone of inhibition at 100 µg/mL (Staphylococcus aureus): 4 mm
